Measurements taken from ChEMBL document CHEMBL1914343, “Recent progress in synthesis and bioactivity studies of indolizines” (Eur J Med Chem, 2011).

Assays:
[1] = target: T1, Polyunsaturated fatty acid lipoxygenase ALOX15 (Oryctolagus cuniculus, UniProt P12530); test: Inhibition of rabbit reticulocytes arachidonate 15-lipoxygenase
T1 sequence (P12530 whole entry): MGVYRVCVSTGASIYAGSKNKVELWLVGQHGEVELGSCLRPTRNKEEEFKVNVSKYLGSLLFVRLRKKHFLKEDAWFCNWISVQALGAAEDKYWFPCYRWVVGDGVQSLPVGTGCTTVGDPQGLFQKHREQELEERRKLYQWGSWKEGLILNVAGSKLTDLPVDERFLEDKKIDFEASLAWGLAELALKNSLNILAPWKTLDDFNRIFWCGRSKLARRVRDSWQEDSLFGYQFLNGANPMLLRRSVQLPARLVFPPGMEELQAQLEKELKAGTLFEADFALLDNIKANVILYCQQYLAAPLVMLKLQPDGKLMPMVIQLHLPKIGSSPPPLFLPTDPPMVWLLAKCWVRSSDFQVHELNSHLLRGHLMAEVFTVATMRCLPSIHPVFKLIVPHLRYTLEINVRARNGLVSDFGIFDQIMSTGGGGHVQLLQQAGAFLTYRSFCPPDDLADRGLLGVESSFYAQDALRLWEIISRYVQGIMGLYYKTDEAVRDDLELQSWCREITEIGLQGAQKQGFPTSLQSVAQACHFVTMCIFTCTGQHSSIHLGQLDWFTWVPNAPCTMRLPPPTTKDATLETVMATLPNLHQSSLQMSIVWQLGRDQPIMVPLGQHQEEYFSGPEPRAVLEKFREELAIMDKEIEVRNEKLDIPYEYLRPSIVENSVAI

[2] = system: Radical scavenging activity; test: Antioxidant activity assessed as DPPH radical scavenging activity at 667 uM after 15 mins; assay type: functional
[3] = Antioxidant activity assessed as inhibition of lipid peroxidation after 30 mins; assay type: functional
[4] = Inhibition of soybean arachidonate 15-lipoxygenase; set-up: species or system Glycine max
[5] = system: Mycobacterium tuberculosis; test: Antimycobacterial activity against Mycobacterium tuberculosis H37Rv ATCC 27294 at 6.25 ug/mL by microplate alamar blue assay; assay type: functional

Compound: COc1ccc(-c2c(-c3ccccc3)c(-c3ccccc3)n3ccc(C#N)cc23)cc1
- IC50 [1]: 37 µM
- Activity [2]: -0.9%
- IC50 [3]: > 100 µM
- IC50 [4]: 20 µM

Compound: COC(c1ccccc1)c1c(-c2ccccc2)c(-c2ccccc2)n2ccc(C#N)cc12 (stereo not given)
- inhibition at 6.25 µg/mL [5]: 74%
- IC50 [4]: 21 µM

Compound: Cc1ccc(S(=O)(=O)Oc2c(-c3ccccc3)c(-c3ccccc3)n3ccc(C#N)cc23)cc1
- IC50 [1]: 25 µM
- IC50 [3]: 3.64 µM
- IC50 [4]: 17 µM

Compound: Cc1cc(C)c(S(=O)(=O)Oc2c(-c3ccccc3)c(-c3ccccc3)n3ccc(C#N)cc23)c(C)c1
- IC50 [4]: 17 µM

Compound: N#Cc1ccn2c(-c3ccccc3)c(-c3ccccc3)c(OS(=O)c3cccs3)c2c1 (stereo not given)
- IC50 [4]: 21 µM

Compound: N#Cc1ccn2c(-c3ccccc3)c(-c3ccccc3)c(OS(=O)c3ccsc3)c2c1 (stereo not given)
- IC50 [4]: 23 µM

Compound: CC(O)(c1ccccc1)c1c(-c2ccccc2)c(-c2ccccc2)n2ccc(C#N)cc12 (stereo not given)
- inhibition at 6.25 µg/mL [5]: 71%
- IC50 [4]: 17 µM

Compound: CC(=O)c1c(-c2ccccc2)c(-c2ccccc2)n2ccc(C#N)cc12
- IC50 [1]: 44 µM
- inhibition at 6.25 µg/mL [5]: 21%
- IC50 [3]: > 100 µM
- IC50 [4]: 23 µM

Compound: COc1cccc(-c2c(-c3ccccc3)c(-c3ccccc3)n3ccc(C#N)cc23)c1
- Activity [2]: -0.3%
- IC50 [3]: > 100 µM
- IC50 [4]: 20 µM

Compound: N#Cc1ccn2c(-c3ccccc3)c(-c3ccccc3)c(OCOCc3ccccc3)c2c1
- IC50 [1]: 39 µM
- Activity [2]: 0.1%
- IC50 [4]: 27 µM

Compound: N#Cc1ccn2c(-c3ccccc3)c(-c3ccccc3)c(OS(=O)(=O)c3ccc(C(F)(F)F)cc3)c2c1
- IC50 [4]: 23 µM

Compound: N#Cc1ccn2c(-c3ccccc3)c(-c3ccccc3)c(C(=O)c3ccccc3)c2c1
- IC50 [1]: 43 µM
- inhibition at 6.25 µg/mL [5]: 33%
- IC50 [4]: 23 µM

Compound: N#Cc1ccn2c(-c3ccccc3)c(-c3ccccc3)c(C=O)c2c1
- IC50 [1]: 61 µM
- inhibition at 6.25 µg/mL [5]: 35%
- IC50 [4]: 29 µM

Compound: CS(=O)(=O)c1ccc(S(=O)(=O)Oc2c(-c3ccccc3)c(-c3ccccc3)n3ccc(C#N)cc23)cc1
- IC50 [4]: 24 µM

Compound: N#Cc1ccn2c(-c3ccccc3)c(-c3ccccc3)c(Br)c2c1
- inhibition at 6.25 µg/mL [5]: 69%
- IC50 [3]: > 100 µM

Compound: COc1ccc(S(=O)(=O)Oc2c(-c3ccccc3)c(-c3ccccc3)n3ccc(C#N)cc23)cc1
- IC50 [4]: 25 µM

Compound: COc1ccc(OC)c(S(=O)(=O)Oc2c(-c3ccccc3)c(-c3ccccc3)n3ccc(C#N)cc23)c1
- IC50 [4]: 15 µM

Compound: COc1ccc(-c2c(OS(=O)(=O)c3ccc(C)cc3)c3cc(C#N)ccn3c2-c2ccc(OC)cc2)cc1
- IC50 [4]: 24 µM

Compound: Cc1ccccc1S(=O)(=O)Oc1c(-c2ccccc2)c(-c2ccccc2)n2ccc(C#N)cc12
- IC50 [4]: 22 µM

Compound: Cc1c(-c2ccccc2)c(-c2ccccc2)n2ccc(C#N)cc12
- inhibition at 6.25 µg/mL [5]: 41%
- Activity [2]: -0.9%
- IC50 [4]: 27 µM

Compound: CCc1c(OS(=O)(=O)c2ccc(C)cc2)c2cc(C#N)ccn2c1CC
- IC50 [4]: 29 µM

Compound: COc1cccc(C(=O)Oc2c(-c3ccccc3)c(-c3ccccc3)n3ccc(C#N)cc23)c1
- Activity [2]: 1.2%
- IC50 [4]: 28 µM

Compound: N#Cc1ccn2c(-c3ccccc3)c(-c3ccccc3)cc2c1
- IC50 [1]: 51 µM
- inhibition at 6.25 µg/mL [5]: 9%
- Activity [2]: -0.2%
- IC50 [3]: > 100 µM
- IC50 [4]: 30 µM

Compound: CN(C)S(=O)(=O)Oc1c(-c2ccccc2)c(-c2ccccc2)n2ccc(C#N)cc12
- IC50 [4]: 25 µM

Compound: CC(=O)Oc1c(-c2ccccc2)c(-c2ccccc2)n2ccc(C#N)cc12
- IC50 [1]: 75 µM
- Activity [2]: -0.5%
- IC50 [3]: 0.15 µM
- IC50 [4]: 31 µM

Compound: N#Cc1ccn2c(-c3ccc(F)cc3)c(-c3ccc(F)cc3)cc2c1
- IC50 [4]: 30 µM

Compound: CC(C)S(=O)(=O)Oc1c(-c2ccccc2)c(-c2ccccc2)n2ccc(C#N)cc12
- IC50 [4]: 42 µM

Compound: N#Cc1ccn2c(-c3ccccc3)c(-c3ccccc3)c(-c3ccco3)c2c1
- Activity [2]: -0.6%
- IC50 [3]: > 100 µM
- IC50 [4]: 24 µM

Compound: N#Cc1ccn2c(-c3ccccc3)c(-c3ccccc3)c(OS(=O)(=O)c3ccccc3)c2c1
- IC50 [4]: 24 µM

Compound: Cc1ccc(S(=O)(=O)Oc2c(-c3ccccc3)c(-c3ccccc3)n3ccc(C=O)cc23)cc1
- IC50 [4]: 20 µM

Compound: N#Cc1ccn2c(-c3ccccc3)c(-c3ccccc3)c(OS(=O)(=O)c3ccc(Cl)cc3)c2c1
- IC50 [4]: 22 µM

Compound: N#Cc1ccn2c(-c3ccccc3)c(-c3ccccc3)c(CO)c2c1
- IC50 [1]: 34 µM
- inhibition at 6.25 µg/mL [5]: 67%
- IC50 [4]: 26 µM

Compound: C=Cc1c(-c2ccccc2)c(-c2ccccc2)n2ccc(C#N)cc12
- IC50 [3]: > 100 µM

Compound: N#Cc1ccn2c(-c3ccccc3)c(-c3ccccc3)c(-c3ccccc3)c2c1
- inhibition at 6.25 µg/mL [5]: 8%
- IC50 [3]: > 100 µM
- IC50 [4]: 28 µM

Compound: CC(=O)c1ccn2c(-c3ccccc3)c(-c3ccccc3)c(OS(=O)(=O)c3ccc(C)cc3)c2c1
- IC50 [4]: 23 µM

Compound: N#Cc1ccn2c(-c3ccccc3)c(-c3ccccc3)c(OCOC(COCc3ccccc3)COCc3ccccc3)c2c1
- Activity [2]: 4.2%
- IC50 [4]: 31 µM

Compound: Cc1ccc(S(=O)(=O)Oc2c(-c3ccccc3)c(-c3ccccc3)n3ccc(C#N)cc23)cc1C
- IC50 [4]: 19 µM

Compound: N#Cc1ccn2c(-c3ccccc3)c(-c3ccccc3)c(OCc3ccccc3)c2c1
- Activity [2]: 0.8%
- IC50 [4]: 31 µM

Compound: CCCCc1c(OS(=O)(=O)c2ccc(C)cc2)c2cc(C#N)ccn2c1CCCC
- IC50 [4]: 30 µM

Compound: COc1ccc(S(=O)(=O)Oc2c(-c3ccc(C)cc3)c(-c3ccc(C)cc3)n3ccc(C#N)cc23)cc1
- IC50 [4]: 25 µM

Compound: O=c1c(O)c(-c2ccc(O)c(O)c2)oc2cc(O)cc(O)c12 [QUERCETIN]
- IC50 [1]: 37 µM
- IC50 [4]: 51 µM

Compound: Cc1ccc(S(=O)(=O)Oc2c(-c3ccc(Cl)cc3)c(-c3ccc(Cl)cc3)n3ccc(C#N)cc23)cc1
- IC50 [4]: 20 µM

Compound: N#Cc1ccn2c(-c3ccccc3)c(-c3ccccc3)c(OCc3ccc(Cl)cc3)c2c1
- Activity [2]: 1.3%
- IC50 [4]: 31 µM

Compound: COc1ccc(C(=O)Oc2c(-c3ccccc3)c(-c3ccccc3)n3ccc(C#N)cc23)cc1
- Activity [2]: 5.4%
- IC50 [4]: 28 µM

Compound: COc1ccc(S(=O)(=O)Oc2c(-c3ccccc3)c(-c3ccccc3)n3ccc(C#N)cc23)c(OC)c1
- IC50 [4]: 27 µM

Compound: Cc1ccc(-c2cc3cc(C#N)ccn3c2-c2ccc(C)cc2)cc1
- IC50 [4]: 27 µM

Compound: COc1ccc(COc2c(-c3ccccc3)c(-c3ccccc3)n3ccc(C#N)cc23)cc1
- Activity [2]: 33.3%
- IC50 [4]: 32 µM

Compound: N#Cc1ccn2c(-c3ccccc3)c(-c3ccccc3)c(OS(=O)(=O)C(F)(F)F)c2c1
- IC50 [1]: 59 µM
- Activity [2]: 79.5%
- IC50 [3]: 0.6 µM
- IC50 [4]: 46 µM

Compound: N#Cc1ccn2c(-c3ccc(Cl)cc3)c(-c3ccc(Cl)cc3)cc2c1
- IC50 [4]: 33 µM

Compound: Cc1ccc(S(=O)(=O)Oc2c(-c3ccccc3)c(-c3ccccc3)n3ccccc23)cc1
- IC50 [4]: 25 µM

Compound: N#Cc1ccn2c(-c3ccccc3)c(-c3ccccc3)c(OCc3cccc(Cl)c3)c2c1
- Activity [2]: -0.1%
- IC50 [4]: 31 µM

Compound: Cc1ccc(COc2c(-c3ccccc3)c(-c3ccccc3)n3ccc(C#N)cc23)cc1
- Activity [2]: -0.8%
- IC50 [4]: 37 µM

Compound: N#Cc1ccn2c(-c3ccccc3)c(-c3ccccc3)c(Cc3ccccc3)c2c1
- IC50 [1]: 46 µM
- inhibition at 6.25 µg/mL [5]: 43%
- IC50 [4]: 27 µM

Compound: COc1ccccc1COc1c(-c2ccccc2)c(-c2ccccc2)n2ccc(C#N)cc12
- Activity [2]: 1.6%
- IC50 [4]: 29 µM

Compound: COc1ccc(C(O)c2c(-c3ccccc3)c(-c3ccccc3)n3ccc(C#N)cc23)cc1 (stereo not given)
- inhibition at 6.25 µg/mL [5]: 87%
- IC50 [4]: 17 µM

Compound: Cc1ccc(-c2c(OS(=O)(=O)c3ccc(C)cc3)c3cc(C#N)ccn3c2-c2ccc(C)cc2)cc1
- IC50 [4]: 20 µM

Compound: N#Cc1ccn2c(-c3ccccc3)c(-c3ccccc3)c(-c3cccs3)c2c1
- Activity [2]: -1.8%
- IC50 [3]: > 100 µM
- IC50 [4]: 20 µM

Compound: Cc1ccc(S(=O)(=O)c2c(-c3ccccc3)c(-c3ccccc3)n3ccc(C#N)cc23)cc1
- IC50 [4]: 29 µM

Compound: Cc1ccc(S(=O)(=O)Oc2c(-c3ccc(F)cc3)c(-c3ccc(F)cc3)n3ccc(C#N)cc23)cc1
- IC50 [4]: 22 µM

Compound: COc1c(-c2ccccc2)c(-c2ccccc2)n2ccc(C#N)cc12
- IC50 [1]: 77 µM
- Activity [2]: -0.6%
- IC50 [3]: 22 µM
- IC50 [4]: 33 µM

Compound: N#Cc1ccn2c(-c3ccccc3)c(-c3ccccc3)c(OCc3ccc(F)cc3)c2c1
- Activity [2]: 1.8%
- IC50 [4]: 35 µM

Compound: CS(=O)(=O)Oc1c(-c2ccccc2)c(-c2ccccc2)n2ccc(C#N)cc12
- IC50 [4]: 22 µM

Compound: CC(O)c1c(-c2ccccc2)c(-c2ccccc2)n2ccc(C#N)cc12 (stereo not given)
- inhibition at 6.25 µg/mL [5]: 78%
- IC50 [4]: 26 µM

Compound: COc1ccccc1C(=O)Oc1c(-c2ccccc2)c(-c2ccccc2)n2ccc(C#N)cc12
- Activity [2]: 4.7%
- IC50 [4]: 30 µM

Compound: COc1ccccc1-c1c(-c2ccccc2)c(-c2ccccc2)n2ccc(C#N)cc12
- Activity [2]: -0.2%
- IC50 [3]: > 100 µM
- IC50 [4]: 20 µM

Compound: CC(C)c1ccc(S(=O)(=O)Oc2c(-c3ccccc3)c(-c3ccccc3)n3ccc(C#N)cc23)cc1
- IC50 [4]: 16 µM

Compound: N#Cc1ccn2c(-c3ccccc3)c(-c3ccccc3)c(-c3ccsc3)c2c1
- Activity [2]: 0%
- IC50 [3]: > 100 µM
- IC50 [4]: 19 µM

Compound: CCS(=O)(=O)Oc1c(-c2ccccc2)c(-c2ccccc2)n2ccc(C#N)cc12
- IC50 [4]: 28 µM
